The numbers were not newly measured in patent US6858233B2, “Simmondsin processing methods and products” (International Flora Technologies, Ltd., priority 2001, dated 2005), which cites them from elsewhere.

One series deals with animals. The conditions noted are these: reported in the literature.
Another series has as its system rats. The conditions noted are these: relative to simmondsin, Cokelaere et al. 1996.

As to `CO[C@H]1[C@@H](OC)C[C@@H](O[C@@H]2O[C@H](CO)[C@@H](O)[C@H](O)[C@H]2O)/C(=C\C#N)[C@@H]1O` [simmondsin], in the series with animals, the “ability to cause food intake reduction” value was “significant food intake reduction”. Turning to `N#C/C=C1\[C@H](O[C@@H]2O[C@H](CO)[C@@H](O)[C@H](O)[C@H]2O)C[C@H](O)[C@H](O)[C@H]1O` [didemethyl simmondsin], the “ability to cause food intake reduction” value in the series with animals is “thought not to have such efficacy”. For simmondsin ferulate, the “ability to cause food intake reduction” value in the series with animals is recorded as “significant food intake reduction”. Also, in the series with rats, the “efficacy compared to simmondsin (food intake reduction)” value is reported as “about 67%”.
